In publication PMC11062922 (Nature Chemical Biology, 2023):
Read-outs that look alike come from different tables or passages of the source.

Tests used:
ILK = experiment: Kinobeads competition binding: ILK; parameters: species or system human; settings: target ILK
MAP3K1 = target: T1, MAP3K1 (Homo sapiens, UniProt Q13233); experiment: Kinobeads two-dose competition binding: MAP3K1; settings: for CATDS: target MAP3K1
T1 construct: endogenous in cells
Excerpt: (§1) Briefly, Kinobeads comprise seven broad-spectrum small molecule kinase inhibitors immobilized on Sepharose beads. […]. Compounds of interest are set to compete for target protein binding with Kinobeads in the lysate and the amount of a given protein bound to Kinobeads in the presence of a compound can be quantified relative to a dimethylsulfoxide (DMSO) vehicle control by label-free mass spectrometry. This assay measures the physical interaction of a compound with thousands of endogenous proteins in parallel and, when systematically increasing the concentration of competitor, enables the calculation of an apparent interaction constant ( Kdapp ) for each compound and protein.
(§2) Kinobeads pulldown experiments were performed as described previously[13],[14],[17] with minor modification. […] The protein concentration was adjusted to 5 mg ml^−1. Kinase inhibitors were spiked into 0.5 ml of cell lysate at final concentrations of 100 and 1,000 nM (or DMSO, 0.3, 1, 3, 10, 30, 100, 300 and 1,000 nM for full dose experiments). […] Lysates were incubated for 45 min at 4 °C. Subsequently, lysates were incubated with Kinobeads ε (17.5 µl of settled beads) for 30 min at 4 °C. To assess the degree of protein depletion from the lysates by Kinobeads, the flow through of the DMSO control was recovered for a pulldown of pulldown experiment where the lysate was incubated a second time with fresh Kinobeads. Beads were washed in three steps with buffer containing 0.4%, 0.2% and no IGEPAL. Bound proteins were reduced with 50 mM DTT in 8 M Urea, 40 mM Tris-HCl pH 7.4 for 30 min at room temperature. After alkylation with 55 mM chloroacetamide, the urea concentration was reduced to 1–2 M and proteins were digested with trypsin. Acidified peptides were desalted and concentrated using SepPak tC18 µEluation plates (Waters). Samples were frozen, dried by vacuum centrifugation and stored at −20 °C.
(§3) Each kinase inhibitor was processed together with all DMSO controls of the same plate. Additionally, each search was supplemented with five high quality DMSO controls for consistent peptide identification and protein grouping. The resultant file (proteinGroups.txt) was used for subsequent filtering, normalization, data visualization and target annotation that was automatically performed by a data processing pipeline built in house that used R (including the ‘drc’ and ‘heatmap’ packages). First, reverse hits, potential contaminants and not quantified proteins in the DMSO control samples were discarded. Protein raw and label-free quantification intensities were normalized to the median DMSO control intensity to obtain relative residual binding intensities for each protein group at every inhibitor concentration and standard deviations of the DMSO control intensity were calculated. IC50 values were estimated based on the following equation IC50=I×100−inhibition/inhibition where [I] is the inhibitor concentration that was used for IC50 calculation and ‘inhibition’ the relative residual binding intensity. […]. Estimated Kdapp values were then calculated by multiplying the estimated IC50 values with a protein-dependent correction factor that was limited to a maximum value of one. The correction factor accounts for the depletion of a target protein from the lysate by Kinobeads. The depletion can be measured by the ratio of the amount of protein captured in two consecutive pulldowns of the same DMSO control lysate. In this study, correction factors were determined in separate experiments using the same lysate mixture and the same bead batch. Correction factors were set to the median of all correction factors. Targets of kinase inhibitors were annotated using the previously published random forest classifier. A training data set was annotated manually. […]

CSNK2A1 (CK2) = target: T2, CSNK2A1 (CK2) (Homo sapiens, UniProt P68400); experiment: Kinobeads two-dose competition binding: CK2 (CSNK2A1)
T2 construct: endogenous in cells

ACAD11 = target: T3, ACAD11 (Homo sapiens, UniProt Q709F0); experiment: Kinobeads two-dose competition binding: ACAD11; settings: sheet CATDS matrix 2; Gene Name ACAD11
T3 construct: endogenous in cells
T3 sequence (Q709F0 1-780): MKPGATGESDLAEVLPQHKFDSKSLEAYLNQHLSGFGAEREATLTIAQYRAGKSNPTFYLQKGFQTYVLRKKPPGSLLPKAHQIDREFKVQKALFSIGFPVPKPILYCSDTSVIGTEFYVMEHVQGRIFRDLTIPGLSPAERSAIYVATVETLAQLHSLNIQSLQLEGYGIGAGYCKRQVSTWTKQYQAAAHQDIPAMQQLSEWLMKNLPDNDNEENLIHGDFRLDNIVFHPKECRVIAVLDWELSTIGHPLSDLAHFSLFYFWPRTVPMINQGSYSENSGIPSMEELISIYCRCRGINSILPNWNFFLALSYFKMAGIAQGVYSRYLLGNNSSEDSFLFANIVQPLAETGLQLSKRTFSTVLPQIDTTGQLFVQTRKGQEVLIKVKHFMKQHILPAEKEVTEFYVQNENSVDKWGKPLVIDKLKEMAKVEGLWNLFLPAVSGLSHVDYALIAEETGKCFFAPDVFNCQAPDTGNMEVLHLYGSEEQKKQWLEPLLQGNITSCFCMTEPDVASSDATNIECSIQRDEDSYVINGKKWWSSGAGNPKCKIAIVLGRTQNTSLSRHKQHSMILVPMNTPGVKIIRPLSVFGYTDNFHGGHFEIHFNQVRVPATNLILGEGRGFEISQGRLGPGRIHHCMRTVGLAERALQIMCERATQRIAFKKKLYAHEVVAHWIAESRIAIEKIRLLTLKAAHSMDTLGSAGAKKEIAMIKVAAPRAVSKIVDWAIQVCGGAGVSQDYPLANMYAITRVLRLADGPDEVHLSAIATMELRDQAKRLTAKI

NUAK1 = target: T4, NUAK1 (Homo sapiens, UniProt O60285); experiment: Kinobeads two-dose competition binding: NUAK1; settings: for CATDS: target NUAK1
T4 construct: to maximize the representation of endogenous proteins; endogenous in cells
T4 sequence (O60285 1-661): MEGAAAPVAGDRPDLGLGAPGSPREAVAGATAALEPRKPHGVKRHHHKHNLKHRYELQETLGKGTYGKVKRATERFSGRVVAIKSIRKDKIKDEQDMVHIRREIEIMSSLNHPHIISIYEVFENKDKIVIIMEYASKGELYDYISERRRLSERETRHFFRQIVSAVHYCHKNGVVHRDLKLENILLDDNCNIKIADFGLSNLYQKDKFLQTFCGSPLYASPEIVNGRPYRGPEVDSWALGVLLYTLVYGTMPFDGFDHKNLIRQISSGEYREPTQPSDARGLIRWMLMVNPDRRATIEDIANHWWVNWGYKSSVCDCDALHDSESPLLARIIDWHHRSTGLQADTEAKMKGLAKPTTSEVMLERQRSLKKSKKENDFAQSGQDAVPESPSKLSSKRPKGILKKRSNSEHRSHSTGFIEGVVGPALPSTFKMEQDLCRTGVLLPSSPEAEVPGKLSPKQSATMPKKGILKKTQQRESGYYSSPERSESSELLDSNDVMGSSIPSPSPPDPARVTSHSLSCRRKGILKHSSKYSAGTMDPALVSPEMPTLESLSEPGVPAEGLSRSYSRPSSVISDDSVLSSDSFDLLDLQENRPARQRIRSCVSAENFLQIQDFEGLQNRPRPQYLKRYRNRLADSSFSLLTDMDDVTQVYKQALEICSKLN
Excerpt: as §1, §2, §3

T1 sequence (Q13233 whole entry): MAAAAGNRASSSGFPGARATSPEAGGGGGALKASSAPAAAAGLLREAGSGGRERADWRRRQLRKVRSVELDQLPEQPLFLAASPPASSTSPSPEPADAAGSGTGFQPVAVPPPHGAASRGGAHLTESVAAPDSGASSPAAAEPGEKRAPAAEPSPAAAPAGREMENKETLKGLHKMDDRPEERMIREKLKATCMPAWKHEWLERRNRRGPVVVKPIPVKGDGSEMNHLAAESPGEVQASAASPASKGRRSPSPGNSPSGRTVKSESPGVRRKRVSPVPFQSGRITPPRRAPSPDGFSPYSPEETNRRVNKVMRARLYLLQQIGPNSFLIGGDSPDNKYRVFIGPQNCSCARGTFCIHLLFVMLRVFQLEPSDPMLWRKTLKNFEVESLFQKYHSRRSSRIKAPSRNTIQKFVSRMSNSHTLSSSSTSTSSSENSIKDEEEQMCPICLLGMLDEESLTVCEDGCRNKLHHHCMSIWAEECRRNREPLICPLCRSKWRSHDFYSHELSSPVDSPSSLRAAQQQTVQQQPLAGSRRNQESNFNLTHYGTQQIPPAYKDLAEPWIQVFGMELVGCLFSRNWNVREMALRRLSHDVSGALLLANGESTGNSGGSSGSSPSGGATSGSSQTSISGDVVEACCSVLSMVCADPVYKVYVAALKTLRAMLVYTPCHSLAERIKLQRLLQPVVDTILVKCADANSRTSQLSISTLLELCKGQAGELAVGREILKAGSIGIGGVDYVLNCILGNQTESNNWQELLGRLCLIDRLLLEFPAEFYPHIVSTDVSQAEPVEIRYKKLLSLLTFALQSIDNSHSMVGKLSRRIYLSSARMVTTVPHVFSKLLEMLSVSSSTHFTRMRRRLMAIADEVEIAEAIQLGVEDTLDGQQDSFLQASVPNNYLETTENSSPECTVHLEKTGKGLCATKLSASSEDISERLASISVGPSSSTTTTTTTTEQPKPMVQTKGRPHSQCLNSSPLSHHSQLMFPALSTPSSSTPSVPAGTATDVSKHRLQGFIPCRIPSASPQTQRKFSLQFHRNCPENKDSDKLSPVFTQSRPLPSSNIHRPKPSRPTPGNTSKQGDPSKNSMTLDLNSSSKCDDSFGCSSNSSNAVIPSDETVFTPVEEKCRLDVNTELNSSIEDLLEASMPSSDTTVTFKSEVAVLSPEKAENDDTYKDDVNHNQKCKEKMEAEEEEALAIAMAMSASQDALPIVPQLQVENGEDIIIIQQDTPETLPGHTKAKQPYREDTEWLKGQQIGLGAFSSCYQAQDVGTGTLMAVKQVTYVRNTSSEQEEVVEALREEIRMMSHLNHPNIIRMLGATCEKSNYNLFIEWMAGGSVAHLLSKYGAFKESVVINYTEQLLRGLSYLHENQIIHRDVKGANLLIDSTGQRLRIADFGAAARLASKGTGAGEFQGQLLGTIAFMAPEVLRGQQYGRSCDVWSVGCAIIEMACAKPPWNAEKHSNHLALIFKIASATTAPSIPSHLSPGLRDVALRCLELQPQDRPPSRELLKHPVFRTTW
T2 sequence (P68400 whole entry): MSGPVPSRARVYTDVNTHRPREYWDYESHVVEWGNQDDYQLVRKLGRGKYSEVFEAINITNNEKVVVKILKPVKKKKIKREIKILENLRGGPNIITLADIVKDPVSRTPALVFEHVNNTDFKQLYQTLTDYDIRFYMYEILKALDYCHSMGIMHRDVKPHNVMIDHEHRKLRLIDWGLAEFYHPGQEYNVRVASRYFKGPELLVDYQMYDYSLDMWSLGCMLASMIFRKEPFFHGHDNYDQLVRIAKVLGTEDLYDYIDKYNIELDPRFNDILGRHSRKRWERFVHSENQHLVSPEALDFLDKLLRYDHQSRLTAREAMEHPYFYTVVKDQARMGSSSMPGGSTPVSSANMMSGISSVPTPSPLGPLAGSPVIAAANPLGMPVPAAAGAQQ

Row | Compound | CATDS (ILK) | CATDS (MAP3K1) | CATDS (CSNK2A1 (CK2); target CSNK2A1;CSNK2A3) | CATDS (ACAD11) | CATDS (NUAK1) | further results
1 | Nc1ncnc2[nH]c(-c3ccccc3)nc12 [AH5015_KCGS] | 0 | 0 | 0 | 0 | 0 | –
2 | CCN1CCN(Cc2ccc(Nc3ncc(F)c(-c4cc(F)c5nc(C)n(C(C)C)c5c4)n3)nc2)CC1 [Abemaciclib] | 0 | 0 | 0.05816 | 0 | 0 | –
3 | CN(C)C/C=C/C(=O)Nc1cc2c(Nc3ccc(F)c(Cl)c3)ncnc2cc1O[C@H]1CCOC1 [Afatinib] | – | 0 | – | 0 | 0 | –
4 | CCc1cc2c(cc1N1CCC(N3CCOCC3)CC1)C(C)(C)c1[nH]c3cc(C#N)ccc3c1C2=O [Alectinib] | 0 | 0 | 0 | 0 | 0 | –
5 | N#CC1(c2ccc(NC(=O)c3cccnc3NCc3ccncc3)cc2)CCCC1 [Apatinib] | 0 | 0 | 0 | 0 | 0 | –
6 | C#Cc1cccc(Nc2ncnc3cc(OC)c(OC4CCN(C)CC4)cc23)c1 [BI00007366] | – | – | – | 0 | – | –
7 | CC(C)N1CC(=O)N(C)c2cnc(Nc3cccc(S(=O)(=O)CCN4CCOCC4)c3)nc21 [BI00009348] | – | – | – | 0 | – | potency estimated from few doses (MAP3K1; Kinobeads two-dose, Drugmatrix - all 2, read-out: apparent Kd MAP3K1): > 1000 nM; potency estimated from few doses (NUAK1; Kinobeads two-dose, Drugmatrix - all 2, read-out: apparent Kd NUAK1): > 1000 nM
8 | COc1cc(Nc2ncc3c(C)nc(-c4cc5ccccc5[nH]4)n3n2)cc(OC)c1OC [GW869516X] | – | – | – | – | – | potency estimated from few doses (CSNK2A1 (CK2); Kinobeads two-dose screen (binding), read-out: Kdapp CK2 (CSNK2A1)): 78 nM; CATDSCK2 (CSNK2A1 (CK2); selectivity score from Kinobeads two-dose data): 1
9 | C[C@]12O[C@H](C[C@]1(O)CO)n1c3ccccc3c3c4c(c5c6ccccc6n2c5c31)CNC4=O [Lestaurtinib] | – | – | – | – | – | potency estimated from few doses (CSNK2A1 (CK2); read-out: Lestaurtinib Drugmatrix value, Gene Name CSNK2A1;CSNK2A3, target CSNK2A1;CSNK2A3, each column = one Lestaurtinib control replicate (batch_R1-R3)): 291 nM
